Measured values reported in US20220054477A1, “INDUCTION OF SUSTAINED LOCAL INFLAMMATION” (Ascendis Pharma Oncology Division A/S, priority 2019, published 2022).

Design: species or system WISTAR rats
Details: rat, in vivo, sc, 25 ug
From the text: Hydrogels were suspended (ca. 6% wt/v) PBST buffer at pH 7.4. […] Blood samples were withdrawn and used for plasma generation over the course of 28 d. […] Plasma concentration profiles were generated and analyzed with Phoenix WinNonlin software (Certara, Princeton, N.J., USA).

Resiquimod [Compound 4]
AUCPred-∞: 65.4 ng·h/mL
Cmax: 23.1 ng/mL
t1/2 (biphasic), first value: 1.5 h
t1/2 (biphasic), second value: 10 h
